Tests used:
Assay in all cases: Cytotoxicity of compounds to tumor cell lines (MTS, 5 days)
Format in all cases: cell-based
[1] = test system: A431(human epidermal carcinoma cells); settings: A-431, 120 h, A431, 5 days
Method: (§1) In the present invention, various human-derived tumor cell lines (BxPC-3 (human orthotopic pancreatic adenocarcinoma cell), SW620 (human colon cancer cell), H1975 (human lung adenocarcinoma cell), HCC827 (human lung adenocarcinoma cell), FaDu (human pharyngeal squamous cell carcinoma cell) and A431(human epidermal carcinoma cells)) were used as experimental models to evaluate the cytotoxicity of compound to tumor cell lines. A certain number of tumor cells were seeded into a 96-well plate. After the cells adhered to the wall, gradient dilutions of tested compounds were added to the test cells, followed by incubation at 37 °C and 5% CO2 for 5 days. Cell viability was measured using MTS, and the inhibitory effect of the control compounds and the tested compounds on the tumor cell lines was evaluated byIC50. The compound with a starting concentration of 4000 nM was diluted 7 folds, with a total of 8 concentration points. […] Table 5: In vitro pharmacodynamic activity of control compounds and tested compounds in human-derived tumor cell lines BxPC-3, SW620 and H1975: […]

[2] = test system: SW620 (human colon cancer cell); settings: SW-620, 120 h, SW620, 5 days
Method: as §1

[3] = test system: FaDu (human pharyngeal squamous cell carcinoma cell); settings: 120 h
Method: as §1

[4] = test system: H1975 (human lung adenocarcinoma cell); settings: NCI-H1975, 120 h, H1975, 5 days
Method: as §1

[5] = test system: HCC827 (human lung adenocarcinoma cell); settings: 120 h, HCC827, 5 days
Method: as §1

[6] = test system: BxPC-3 (human orthotopic pancreatic adenocarcinoma cell); settings: for IC50: Homo sapiens, 120 h, BxPC-3, 5 days, MTS; for anti-tumor effects: in words, BxPC-3, SW620, H1975, HCC827, FaDu and A431 cell models
Method: as §1

C=C1C[C@@H]2CC[C@@]34C[C@H]5O[C@H]6[C@@H](O3)[C@H]3O[C@H](CC[C@@H]3O[C@H]6[C@H]5O4)CC(=O)C[C@@H]3[C@@H](OC)[C@@H](C[C@H](O)CNC)O[C@H]3C[C@H]3O[C@@H](CC[C@@H]1O2)C[C@@H](C)C3=C [D-2]
IC50 [1]: 20 pM
IC50 [2]: 1250 pM
IC50 [3]: 370 pM
IC50 [4]: 250 pM
IC50 [5]: 25 pM
IC50 [6]: 30 pM

C=C1C[C@@H]2CC[C@@]34C[C@H]5O[C@H]6[C@@H](O3)[C@H]3O[C@H](CC[C@@H]3O[C@H]6[C@H]5O4)CC(=O)C[C@@H]3[C@@H](OC)[C@@H](C[C@H](O)CN(C)C(=O)OC(C)(C)C)O[C@H]3C[C@H]3O[C@@H](CC[C@@H]1O2)C[C@@H](C)C3=C [D-3]
IC50 [1]: < 5 pM
IC50 [2]: < 5 pM
IC50 [3]: < 5 pM
IC50 [4]: < 5 pM
IC50 [5]: < 5 pM
IC50 [6]: < 5 pM
anti-tumor effects [6]: the best effects

C=C1C[C@@H]2CC[C@@]34C[C@H]5O[C@H]6[C@@H](O3)[C@H]3O[C@H](CC[C@@H]3O[C@H]6[C@H]5O4)CC(=O)C[C@@H]3[C@@H](OC)[C@@H](C[C@H](O)CN)O[C@H]3C[C@H]3O[C@@H](CC[C@@H]1O2)C[C@@H](C)C3=C [D-4(eribulin), eribulin]
IC50 [1]: 30 pM
IC50 [2]: 2560 pM
IC50 [3]: 730 pM
IC50 [4]: 390 pM
IC50 [5]: 50 pM
IC50 [6]: 60 pM

C=CCOC(=O)N(C)C[C@@H](O)C[C@H]1O[C@H]2C[C@H]3O[C@@H](CC[C@@H]4O[C@@H](CC[C@@]56C[C@H]7O[C@H]8[C@@H](O5)[C@H]5O[C@H](CC[C@@H]5O[C@H]8[C@H]7O6)CC(=O)C[C@@H]2[C@H]1OC)CC4=C)C[C@@H](C)C3=C [D-7]
IC50 [1]: < 5 pM
IC50 [2]: < 5 pM
IC50 [3]: 10 pM
IC50 [4]: 10 pM
IC50 [5]: < 5 pM
IC50 [6]: < 5 pM
anti-tumor effects [6]: the best effects

C=C1C[C@@H]2CC[C@@]34C[C@H]5O[C@H]6[C@@H](O3)[C@H]3O[C@H](CC[C@@H]3O[C@H]6[C@H]5O4)CC(=O)C[C@@H]3[C@@H](OC)[C@@H](C[C@H](O)CN(C)C(=O)OCc4ccccc4)O[C@H]3C[C@H]3O[C@@H](CC[C@@H]1O2)C[C@@H](C)C3=C [D-8]
IC50 [1]: < 5 pM
IC50 [2]: < 5 pM
IC50 [3]: < 5 pM
IC50 [4]: < 5 pM
IC50 [5]: < 5 pM
IC50 [6]: < 5 pM
anti-tumor effects [6]: the best effects

C=C1C[C@@H]2CC[C@@]34C[C@H]5O[C@H]6[C@@H](O3)[C@H]3O[C@H](CC[C@@H]3O[C@H]6[C@H]5O4)CC(=O)C[C@@H]3[C@@H](OC)[C@@H](C[C@H](O)CN(C)C(=O)c4ccccc4)O[C@H]3C[C@H]3O[C@@H](CC[C@@H]1O2)C[C@@H](C)C3=C [D-9]
IC50 [1]: < 5 pM
IC50 [2]: < 5 pM
IC50 [3]: < 5 pM
IC50 [4]: < 5 pM
IC50 [5]: < 5 pM
IC50 [6]: < 5 pM
anti-tumor effects [6]: the best effects

C=C1C[C@@H]2CC[C@@]34C[C@H]5O[C@H]6[C@@H](O3)[C@H]3O[C@H](CC[C@@H]3O[C@H]6[C@H]5O4)CC(=O)C[C@@H]3[C@@H](OC)[C@@H](C[C@H](O)CN(C)C(=O)C(C)C)O[C@H]3C[C@H]3O[C@@H](CC[C@@H]1O2)C[C@@H](C)C3=C [D-11]
IC50 [1]: 20 pM
IC50 [2]: 150 pM
IC50 [3]: 80 pM
IC50 [4]: 60 pM
IC50 [5]: 10 pM
IC50 [6]: 10 pM

C=C1C[C@@H]2CC[C@@]34C[C@H]5O[C@H]6[C@@H](O3)[C@H]3O[C@H](CC[C@@H]3O[C@H]6[C@H]5O4)CC(=O)C[C@@H]3[C@@H](OC)[C@@H](C[C@H](O)CN(C)C(=O)C(C)(C)C)O[C@H]3C[C@H]3O[C@@H](CC[C@@H]1O2)C[C@@H](C)C3=C [D-12]
IC50 [1]: < 5 pM
IC50 [2]: < 5 pM
IC50 [3]: < 5 pM
IC50 [4]: < 5 pM
IC50 [5]: < 5 pM
IC50 [6]: < 5 pM
anti-tumor effects [6]: the best effects

C=C1C[C@@H]2CC[C@@]34C[C@H]5O[C@H]6[C@@H](O3)[C@H]3O[C@H](CC[C@@H]3O[C@H]6[C@H]5O4)CC(=O)C[C@@H]3[C@@H](OC)[C@@H](C[C@H](O)CNC(=O)OC(C)(C)C)O[C@H]3C[C@H]3O[C@@H](CC[C@@H]1O2)C[C@@H](C)C3=C [D-13]
IC50 [1]: < 5 pM
IC50 [2]: < 5 pM
IC50 [3]: < 5 pM
IC50 [4]: < 5 pM
IC50 [5]: < 5 pM
IC50 [6]: < 5 pM
anti-tumor effects [6]: the best effects

C=C1C[C@@H]2CC[C@@]34C[C@H]5O[C@H]6[C@@H](O3)[C@H]3O[C@H](CC[C@@H]3O[C@H]6[C@H]5O4)CC(=O)C[C@@H]3[C@@H](OC)[C@@H](C[C@H](O)CN(C)S(C)(=O)=O)O[C@H]3C[C@H]3O[C@@H](CC[C@@H]1O2)C[C@@H](C)C3=C [D-14]
IC50 [1]: 10 pM
IC50 [2]: 190 pM
IC50 [3]: 160 pM
IC50 [4]: 100 pM
IC50 [5]: 10 pM
IC50 [6]: 10 pM

C=C1C[C@@H]2CC[C@@]34C[C@H]5O[C@H]6[C@@H](O3)[C@H]3O[C@H](CC[C@@H]3O[C@H]6[C@H]5O4)CC(=O)C[C@@H]3[C@@H](OC)[C@@H](C[C@H](O)CN(C)C(=O)C(F)F)O[C@H]3C[C@H]3O[C@@H](CC[C@@H]1O2)C[C@@H](C)C3=C [D-15]
IC50 [1]: 20 pM
IC50 [2]: 690 pM
IC50 [3]: 330 pM
IC50 [4]: 140 pM
IC50 [5]: 20 pM
IC50 [6]: 30 pM

C=C1C[C@@H]2CC[C@@]34C[C@H]5O[C@H]6[C@@H](O3)[C@H]3O[C@H](CC[C@@H]3O[C@H]6[C@H]5O4)CC(=O)C[C@@H]3[C@@H](OC)[C@@H](C[C@H](O)CNC(=O)[C@H]4C[C@@H](OC)C4)O[C@H]3C[C@H]3O[C@@H](CC[C@@H]1O2)C[C@@H](C)C3=C [D-21]
IC50 [1]: 120 pM
IC50 [2]: 240 pM
IC50 [3]: 390 pM
IC50 [4]: 240 pM
IC50 [5]: 40 pM
IC50 [6]: 50 pM

Reference: EP4653016A1, “CONJUGATE OF ERIBULIN DRUG” (SystImmune, Inc., priority 2023, dated 2024)
